# Reference: ChEMBL document CHEMBL1201861, “Genomics of Drug Sensitity in Cancer screening data, Wellcome Trust Sanger Institute”
# Columns and labels:
# [1] = test system: NCI-H1792; assay: cells; type: functional, cell-based; conditions: Homo sapiens;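 also: growth inhibition of human NCI-H1792 cells, read out as cell viability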
# Description: SANGER: Inhibition of human NCI-H1792 cell growth in a cell viability assay.
# [2] = test system: OVCAR-8; assay: cells; type: functional, cell-based; conditions: Homo sapiens;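 also: growth inhibition of human OVCAR-8 cells, read out by a cell viability assay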
# Description: SANGER: Inhibition of human OVCAR-8 cell growth in a cell viability assay.
# [3] = test system: VM-CUB-1; assay: cells; type: functional, cell-based; conditions: Homo sapiens;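 also: cell viability assay measuring growth inhibition of the human VM-CUB-1 cell line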
# Description: SANGER: Inhibition of human VM-CUB-1 cell growth in a cell viability assay.
# [4] = test system: HC-1; assay: cells; type: functional, cell-based, Homo sapiens; conditions: Homo sapiens, HC-1;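 also: growth inhibition of HC-1 cells measured by a cell viability assay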
# Description: SANGER: Inhibition of human HC-1 cell growth in a cell viability assay.
# [5] = test system: NCI-H522; assay: cells; type: functional, cell-based; conditions: Homo sapiens;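 also: cell viability assay measuring growth inhibition of human NCI-H522 cells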
# Description: SANGER: Inhibition of human NCI-H522 cell growth in a cell viability assay.
# [6] = test system: TCC-SUP; assay: cells; type: functional, cell-based; conditions: Homo sapiens;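 also: growth inhibition of TCC-SUP cells, read out with a cell viability assay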
# Description: SANGER: Inhibition of human TCCSUP cell growth in a cell viability assay.
# [7] = test system: CAL-27; assay: cells; type: functional, cell-based; conditions: Homo sapiens;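 also: Viability-based readout, IC50 reflecting inhibition of CAL-27 cell growth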
# Description: SANGER: Inhibition of human CAL-27 cell growth in a cell viability assay.
# [8] = test system: NCI-H358; assay: cells; type: functional, cell-based; conditions: Homo sapiens;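 also: growth inhibition of NCI-H358 human cells, read out with a cell viability assay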
# Description: SANGER: Inhibition of human NCI-H358 cell growth in a cell viability assay.
# [9] = test system: SU-DHL-1; assay: SANGER: Inhibition of human SU-DHL-1 cell growth in a cell viability assay.; type: functional, cell-based; conditions: Homo sapiens, SU-DHL-1
# [10] = test system: NCI-H292; assay: cells; type: functional, cell-based; conditions: Homo sapiens;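 also: growth inhibition of NCI-H292 cells, read out with a cell viability assay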
# Description: SANGER: Inhibition of human NCI-H292 cell growth in a cell viability assay.
# [11] = test system: NCI-H2196; assay: cells; type: functional, cell-based, Homo sapiens; conditions: Homo sapiens, NCI-H2196; read-out: IC50;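 also: cell viability assay used as the readout of growth inhibition in NCI-H2196 cells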
# Description: SANGER: Inhibition of human NCI-H2196 cell growth in a cell viability assay.
# [12] = test system: NCI-H524; assay: cells; type: functional, cell-based, Homo sapiens; conditions: Homo sapiens, NCI-H524;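 also: growth inhibition of human NCI-H524 cells, read out through a cell viability assay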
# Description: SANGER: Inhibition of human NCI-H524 cell growth in a cell viability assay.
# [13] = test system: ABC-1; assay: cells; type: functional, cell-based; conditions: Homo sapiens;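 also: growth inhibition of human ABC-1 cells, read out by a cell viability assay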
# Description: SANGER: Inhibition of human ABC-1 cell growth in a cell viability assay.
# [14] = test system: SW1990; assay: cells; type: functional, cell-based; conditions: Homo sapiens
# Description: SANGER: Inhibition of human SW1990 cell growth in a cell viability assay.
# [15] = test system: SW837; assay: cells; type: functional, cell-based; conditions: Homo sapiens;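 also: growth inhibition of SW837 cells, determined with a cell viability assay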
# Description: SANGER: Inhibition of human SW837 cell growth in a cell viability assay.
# [16] = test system: NCI-H661; assay: cells; type: functional, cell-based; conditions: Homo sapiens;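 also: cell viability assay read-out, IC50 being the concentration that inhibits growth of the cells by half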
# Description: SANGER: Inhibition of human NCI-H661 cell growth in a cell viability assay.
# [17] = test system: HO-1-N-1; assay: cells; type: functional, cell-based; conditions: Homo sapiens;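 also: growth inhibition of human HO-1-N-1 cells, read out with a cell viability assay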
# Description: SANGER: Inhibition of human HO-1-N-1 cell growth in a cell viability assay.
# [18] = test system: HCC1954; assay: cells; type: functional, cell-based; conditions: Homo sapiens;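 also: growth inhibition of human HCC1954 cells, read out with a cell viability assay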
# Description: SANGER: Inhibition of human HCC1954 cell growth in a cell viability assay.
# [19] = test system: HMV-2 cell line; assay: cells; type: functional, cell-based; conditions: Homo sapiens;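 also: growth inhibition of HMV-II cells, read out with a cell viability assay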
# Description: SANGER: Inhibition of human HMV-II cell growth in a cell viability assay.
# [20] = test system: SCC-9; assay: cells; type: functional, cell-based; conditions: Homo sapiens;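 also: Read-out is a cell viability assay, with values giving inhibition of cell growth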
# Description: SANGER: Inhibition of human SCC-9 cell growth in a cell viability assay.
# [21] = test system: OE33; assay: cells; type: functional, cell-based; conditions: Homo sapiens;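 also: growth inhibition of human OE33 cells, measured by a cell viability assay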
# Description: SANGER: Inhibition of human OE33 cell growth in a cell viability assay.
# [22] = test system: KOSC-2; assay: cells; type: functional, cell-based; conditions: Homo sapiens;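 also: growth inhibition of KOSC-2 cells, read out by a cell viability assay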
# Description: SANGER: Inhibition of human KOSC-2 cell growth in a cell viability assay.
# [23] = test system: PF-382; assay: cells; type: functional, cell-based, Homo sapiens; conditions: Homo sapiens, PF-382
# Description: SANGER: Inhibition of human PF-382 cell growth in a cell viability assay.
# [24] = test system: BFTC-905; assay: cells; type: functional, cell-based; conditions: Homo sapiens
# Description: SANGER: Inhibition of human BFTC-905 cell growth in a cell viability assay.
# [25] = test system: NCI-H2087; assay: cells; type: functional, cell-based; conditions: Homo sapiens;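 also: growth inhibition determined with a cell viability readout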
# Description: SANGER: Inhibition of human NCI-H2087 cell growth in a cell viability assay.
# [26] = test system: KYSE-150 cell line; assay: cells; type: functional, cell-based; conditions: Homo sapiens;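 also: growth inhibition of human KYSE-150 cells, read out with a cell viability assay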
# Description: SANGER: Inhibition of human KYSE-150 cell growth in a cell viability assay.
# [27] = test system: HCC1599; assay: cells; type: functional, cell-based, Homo sapiens; conditions: Homo sapiens, HCC1599;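 also: growth inhibition of HCC1599 cells, read out in a cell viability assay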
# Description: SANGER: Inhibition of human HCC1599 cell growth in a cell viability assay.
# [28] = test system: GDM-1; assay: cells; type: functional, cell-based, Homo sapiens; conditions: Homo sapiens, GDM-1; read-out: IC50;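 also: cell viability readout used to measure growth inhibition of human GDM-1 cells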
# Description: SANGER: Inhibition of human GDM-1 cell growth in a cell viability assay.
# [29] = test system: A204; assay: cells; type: functional, cell-based; conditions: Homo sapiens;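 also: growth inhibition of human A204 cells, read out with a cell viability assay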
# Description: SANGER: Inhibition of human A204 cell growth in a cell viability assay.
# [30] = test system: RVH-421; assay: cells; type: functional, cell-based; conditions: Homo sapiens
# Description: SANGER: Inhibition of human RVH-421 cell growth in a cell viability assay.
# [31] = test system: NCI-H28; assay: cells; type: functional, cell-based; conditions: Homo sapiens;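 also: growth inhibition of human NCI-H28 cells, read out as cell viability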
# Description: SANGER: Inhibition of human NCI-H28 cell growth in a cell viability assay.
# [32] = test system: NCI-H1882; assay: cells; type: functional, cell-based, Homo sapiens; conditions: Homo sapiens, NCI-H1882;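 also: growth inhibition of the cell line, determined with a viability assay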
# Description: SANGER: Inhibition of human NCI-H1882 cell growth in a cell viability assay.
# [33] = test system: T84; assay: cells; type: functional, cell-based; conditions: Homo sapiens;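 also: growth inhibition measured with a cell viability readout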
# Description: SANGER: Inhibition of human T84 cell growth in a cell viability assay.
# [34] = test system: SN12C; assay: cells; type: functional, cell-based; conditions: Homo sapiens;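 also: growth inhibition of human SN12C cells, measured by a cell viability assay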
# Description: SANGER: Inhibition of human SN12C cell growth in a cell viability assay.
# [35] = test system: SCLC-21H; assay: cells; type: functional, cell-based, Homo sapiens; conditions: Homo sapiens, SCLC-21H;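 also: growth inhibition of cultured human SCLC-21H cells, read out with a cell viability assay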
# Description: SANGER: Inhibition of human SCLC-21H cell growth in a cell viability assay.
# [36] = test system: LK-2; assay: cells; type: functional, cell-based; conditions: Homo sapiens;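 also: growth inhibition of LK-2 cells, read out with a viability assay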
# Description: SANGER: Inhibition of human LK-2 cell growth in a cell viability assay.
# [37] = test system: 5637; assay: cells; type: functional, cell-based; conditions: Homo sapiens
# Description: SANGER: Inhibition of human 5637 cell growth in a cell viability assay.
# [38] = test system: SAS; assay: cells; type: functional, cell-based; conditions: Homo sapiens;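 also: growth inhibition of SAS cells, read out with a cell viability assay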
# Description: SANGER: Inhibition of human SAS cell growth in a cell viability assay.
# [39] = test system: J82; assay: cells; type: functional, cell-based; conditions: Homo sapiens;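 also: growth inhibition of J82 cells, read out with a cell viability assay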
# Description: SANGER: Inhibition of human J82 cell growth in a cell viability assay.
# [40] = test system: 769-P; assay: cells; type: functional, cell-based; conditions: Homo sapiens
# Description: SANGER: Inhibition of human 769-P cell growth in a cell viability assay.
# [41] = test system: NCI-H460; assay: cells; type: functional, cell-based; conditions: Homo sapiens;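 also: cell viability assay scoring growth inhibition of human NCI-H460 cells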
# Description: SANGER: Inhibition of human NCI-H460 cell growth in a cell viability assay.
# [42] = test system: HCT-116; assay: cells; type: functional, cell-based; conditions: Homo sapiens
# Description: SANGER: Inhibition of human HCT-116 cell growth in a cell viability assay.
# [43] = test system: EB2; assay: cells; type: functional, cell-based, Homo sapiens; conditions: Homo sapiens, EB2;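 also: growth inhibition of EB2 cells, read out with a cell viability assay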
# Description: SANGER: Inhibition of human EB2 cell growth in a cell viability assay.
# [44] = test system: MHH-ES-1; assay: cells; type: functional, cell-based; conditions: Homo sapiens
# Description: SANGER: Inhibition of human MHH-ES-1 cell growth in a cell viability assay.
# [45] = test system: NCI-H1793; assay: cells; type: functional, cell-based; conditions: Homo sapiens;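 also: cell growth inhibition, read out by a cell viability assay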
# Description: SANGER: Inhibition of human NCI-H1793 cell growth in a cell viability assay.
# [46] = test system: Capan-2; assay: cells; type: functional, cell-based; conditions: Homo sapiens;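 also: Capan-2 cell growth inhibition, read out with a viability assay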
# Description: SANGER: Inhibition of human Capan-2 cell growth in a cell viability assay.
# [47] = test system: NCI-H1651; assay: cells; type: functional, cell-based; conditions: Homo sapiens;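 also: Read-out is a cell viability assay, with IC50 expressing inhibition of NCI-H1651 cell growth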
# Description: SANGER: Inhibition of human NCI-H1651 cell growth in a cell viability assay.
# [48] = test system: SK-N-AS; assay: cells; type: functional, cell-based; conditions: Homo sapiens;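 also: growth inhibition of human SK-N-AS cells, measured with a cell viability assay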
# Description: SANGER: Inhibition of human SK-N-AS cell growth in a cell viability assay.
# [49] = test system: NALM-6; assay: cells; type: functional, cell-based, Homo sapiens; conditions: Homo sapiens, NALM-6;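 also: growth inhibition of NALM-6 cells, read out with a cell viability assay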
# Description: SANGER: Inhibition of human NALM-6 cell growth in a cell viability assay.
# [50] = test system: A2780; assay: cells; type: functional, cell-based; conditions: Homo sapiens;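 also: growth inhibition of A2780 cells, read out with a cell viability assay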
# Description: SANGER: Inhibition of human A2780 cell growth in a cell viability assay.
# [51] = test system: HOS; assay: cells; type: functional, cell-based; conditions: Homo sapiens;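 also: growth inhibition of human HOS cells, read out with a cell viability assay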
# Description: SANGER: Inhibition of human HOS cell growth in a cell viability assay.
# [52] = test system: A-375; assay: cells; type: functional, cell-based; conditions: Homo sapiens;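 also: growth inhibition of A375 cells, read out with a cell viability assay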
# Description: SANGER: Inhibition of human A375 cell growth in a cell viability assay.
# [53] = test system: Calu-3; assay: cells; type: functional, cell-based; conditions: Homo sapiens;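 also: growth inhibition of human Calu-3 cells, determined with a cell viability assay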
# Description: SANGER: Inhibition of human Calu-3 cell growth in a cell viability assay.
# [54] = test system: HSC-4; assay: cells; type: functional, cell-based; conditions: Homo sapiens;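 also: growth inhibition of human HSC-4 cells, read out with a cell viability assay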
# Description: SANGER: Inhibition of human HSC-4 cell growth in a cell viability assay.
# [55] = test system: UACC-62; assay: cells; type: functional, cell-based; conditions: Homo sapiens;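 also: growth inhibition of human UACC-62 cells, read out by a cell viability assay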
# Description: SANGER: Inhibition of human UACC-62 cell growth in a cell viability assay.
# [56] = test system: KYSE-520 cell line; assay: cells; type: functional, cell-based; conditions: Homo sapiens;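 also: growth inhibition of human KYSE-520 cells, read out with a viability assay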
# Description: SANGER: Inhibition of human KYSE-520 cell growth in a cell viability assay.
# [57] = test system: HCC1419; assay: cells; type: functional, cell-based; conditions: Homo sapiens;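 also: growth inhibition of human HCC1419 cells, read out as cell viability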
# Description: SANGER: Inhibition of human HCC1419 cell growth in a cell viability assay.
# [58] = test system: BCPAP; assay: cells; type: functional, cell-based; conditions: Homo sapiens;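 also: growth inhibition of BCPAP cells, read out in a cell viability assay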
# Description: SANGER: Inhibition of human BCPAP cell growth in a cell viability assay.
# [59] = test system: Kasumi 1; assay: cells; type: functional, cell-based, Homo sapiens; conditions: Homo sapiens, Kasumi 1;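 also: growth inhibition of human Kasumi-1 cells, read out by a cell viability assay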
# Description: SANGER: Inhibition of human KASUMI-1 cell growth in a cell viability assay.
structure (smiles),measurement,setting,value
OC[C@H](Cc1ccccc1)Nc1nc(Oc2ccc3c(c2)CCC3)nc2c1ncn2Cc1ccc(-c2ccccc2)cc1,IC50,[1],> 10200 nM
same,IC50,[2],> 10200 nM
same,IC50,[3],> 10200 nM
same,IC50,[4],> 10200 nM
same,IC50,[5],> 10.2 µM
same,IC50,[6],> 10.2 µM
same,IC50,[7],> 10.2 µM
same,IC50,[8],> 10200 nM
same,IC50,[9],> 10.2 µM
same,IC50,[10],> 10200 nM
same,IC50,[11],> 10.2 µM
same,IC50,[12],> 10.2 µM
same,IC50,[13],> 10200 nM
same,IC50,[14],> 10200 nM
same,IC50,[15],> 10.2 µM
same,IC50,[16],> 10200 nM
same,IC50,[17],> 10200 nM
same,IC50,[18],10 µM
same,IC50,[19],6.34 µM
same,IC50,[20],> 10200 nM
same,IC50,[21],> 10200 nM
same,IC50,[22],> 10200 nM
same,IC50,[23],> 10.2 µM
same,IC50,[24],5.02 µM
same,IC50,[25],> 10.2 µM
same,IC50,[26],9.34 µM
same,IC50,[27],> 10.2 µM
same,IC50,[28],3.33 µM
same,IC50,[29],> 10200 nM
same,IC50,[30],> 10200 nM
same,IC50,[31],> 10200 nM
same,IC50,[32],> 10.2 µM
same,IC50,[33],> 10.2 µM
same,IC50,[34],> 10200 nM
same,IC50,[35],> 10.2 µM
same,IC50,[36],> 10200 nM
same,IC50,[37],4180 nM
same,IC50,[38],4.8 µM
same,IC50,[39],9.51 µM
same,IC50,[40],3640 nM
same,IC50,[41],2730 nM
same,IC50,[42],> 10200 nM
same,IC50,[43],> 10.2 µM
same,IC50,[44],> 10.2 µM
same,IC50,[45],> 10200 nM
same,IC50,[46],> 10.2 µM
same,IC50,[47],> 10200 nM
same,IC50,[48],> 10200 nM
same,IC50,[49],3.51 µM
same,IC50,[50],> 10200 nM
same,IC50,[51],3080 nM
same,IC50,[52],6.87 µM
same,IC50,[53],> 10.2 µM
same,IC50,[54],> 10200 nM
same,IC50,[55],> 10200 nM
same,IC50,[56],> 10200 nM
same,IC50,[57],> 10.2 µM
same,IC50,[58],> 10200 nM
NC(=O)Nc1cc(-c2cccc(F)c2)sc1C(=O)N[C@H]1CCCNC1 [AZD-7762],IC50,[1],942 nM
same,IC50,[2],356 nM
same,IC50,[3],619 nM
same,IC50,[4],521 nM
same,IC50,[6],> 2 µM
same,IC50,[7],> 2 µM
same,IC50,[8],1430 nM
same,IC50,[10],898 nM
same,IC50,[13],261 nM
same,IC50,[14],384 nM
same,IC50,[15],> 2 µM
same,IC50,[16],637 nM
same,IC50,[17],1140 nM
same,IC50,[18],> 2 µM
same,IC50,[19],> 2 µM
same,IC50,[20],1990 nM
same,IC50,[21],391 nM
same,IC50,[22],247 nM
same,IC50,[24],0.985 µM
same,IC50,[25],> 2 µM
same,IC50,[59],< 7.81 nM
same,IC50,[26],> 2 µM
same,IC50,[29],8.56 nM
same,IC50,[30],1190 nM
same,IC50,[31],297 nM
same,IC50,[33],> 2 µM
same,IC50,[34],1120 nM
same,IC50,[36],1460 nM
same,IC50,[37],193 nM
same,IC50,[38],1.27 µM
same,IC50,[39],0.805 µM
same,IC50,[40],223 nM
same,IC50,[41],1530 nM
same,IC50,[42],1420 nM
same,IC50,[44],> 2 µM
same,IC50,[45],1610 nM
same,IC50,[46],> 2 µM
same,IC50,[47],1090 nM
same,IC50,[48],188 nM
same,IC50,[50],432 nM
same,IC50,[51],880 nM
same,IC50,[52],0.499 µM
same,IC50,[53],> 2 µM
same,IC50,[54],106 nM
same,IC50,[55],776 nM
same,IC50,[56],826 nM
same,IC50,[57],> 2 µM
same,IC50,[58],1890 nM
